Data set [1] in a line: Inhibition of N-terminal GST-tagged wildtype human P38alpha (4 to 152 residues) extracted from Escherichia coli/GST-tagged MK2 (unknown origin) assessed as reduction in HSP27 phosphorylation incubated for 2 hrs in presence of ATP and HSP27-FITC peptide by fluorescence polarization based IMAP assay.
Data set [2] in a line: Inhibition of N-terminal GST-tagged wildtype human P38alpha (4 to 152 residues) extracted from Escherichia coli/GST-tagged PRAK (unknown origin) assessed as reduction in HSP27 phosphorylation incubated for 2 hrs in presence of ATP and HSP27-FITC peptide by fluorescence polarization based IMAP assay.
Data set [3] is described as follows: Half-life in male Sprague-Dawley rat at 1 mg/kg, iv measured after 24 hrs by LC-MS/MS analysis. In kind it is ADME, organism-based. Conditions: in vivo.
Data set [4] can be described thus: Oral bioavailability in male Sprague-Dawley rat at 2 mg/kg measured after 24 hrs by LC-MS/MS analysis. Conditions: in vivo. The data set is classed as ADME, organism-based.
A short description of data set [5]: Volume of distribution at steady state in male Sprague-Dawley rat at 1 mg/kg, iv measured after 24 hrs by LC-MS/MS analysis. The data set is classed as ADME, organism-based. As to conditions: in vivo, read-out: Vdss.
Data set [6] can be described thus: Cmax in male Sprague-Dawley rat at 2 mg/kg, po measured after 24 hrs by LC-MS/MS analysis. In kind it is ADME, organism-based. Conditions: in vivo.
The nature of data set [7]: AUClast in male Sprague-Dawley rat at 2 mg/kg, po measured after 24 hrs by LC-MS/MS analysis. In kind it is ADME, organism-based. Conditions: in vivo.
Data set [8] in a line: Selectivity ratio of IC50 for inhibition of N-terminal GST-tagged wildtype human P38alpha (4 to 152 residues) extracted from Escherichia coli/GST-tagged PRAK (unknown origin) to IC50 for inhibition of N-terminal GST-tagged wildtype human P38alpha (4 to 152 residues) extracted from Escherichia coli/GST-tagged MK2 (unknown origin).
Data set [9] is described as follows: AUClast in male Sprague-Dawley rat at 1 mg/kg, iv measured after 24 hrs by LC-MS/MS analysis. The data set is classed as ADME, organism-based. As to conditions: in vivo.
A short description of data set [10]: Clearance in male Sprague-Dawley rat at 1 mg/kg, iv measured after 24 hrs by LC-MS/MS analysis. The data set is classed as ADME, organism-based. Conditions: in vivo.
Data set [11] in a line: MRT in male Sprague-Dawley rat at 1 mg/kg, iv measured after 24 hrs by LC-MS/MS analysis. As to conditions: in vivo. The data set is classed as ADME, organism-based.

Structures are written as SMILES. Some results are limits rather than exact numbers.

Consider `Cc1cnc(-c2ccnc(C(C)(C)O)n2)cc1-n1c(C)cc(OCc2ncc(F)cc2F)c(C)c1=O`, for which the IC50 in data set [1] is 88 nM.
For the molecule `Cc1cnc(-c2cccc(C(C)(C)O)c2)c(F)c1-n1c(C)cc(O[C@@H](C)c2ncc(F)cc2F)c(Cl)c1=O`, the concentration for half-maximal inhibition (IC50) in data set [2] is 3780 nM; in [1], 1.9 nM. This molecule also gave a half-life in [3] of 2.2 h. Moreover, the bioavailability in [4] came out at 125%. For the same molecule, the Vd in data set [5] came to 0.9 L/kg. For the same molecule, in data set [6], the peak level (Cmax) was 1030 ng/mL. The AUC(0-t) at 24 h is 8050 ng·h/mL in [7] and 3230 ng·h/mL in data set [9]. For the same molecule, the Ratio IC50 in [8] came to 1990. Also, the clearance in data set [10] turned out to be 5 mL/min/kg. The molecule further came in with an MRT in data set [11] of 3 h.
In the case of `Cc1cnc(-c2ccnc(C(C)(C)O)n2)nc1-n1c(C)cc(OCc2ncc(F)cc2F)c(Cl)c1=O`, the IC50 in data set [1] was over 10000 nM.
`COc1c(O[C@@H](C)c2ncc(F)cc2F)cc(C)n(-c2c(C)cnc(-c3ccnc(C(C)(C)O)n3)c2F)c1=O`: in data set [1], the IC50 came to 26 nM.
Turning to `Cc1cnc(-c2ccnc(C(C)(C)O)n2)cc1-n1c(C)cc(Oc2ncc(F)cc2F)c(Cl)c1=O`, the IC50 in data set [1] is over 10000 nM.
`Cc1cnc(-c2ccnc(C(C)(C)O)n2)cc1-n1c(C)cc(O[C@@H](C)c2ncc(F)cc2F)c(Cl)c1=O`: in data set [1], the IC50 is over 1000 nM.
Take `Cc1cnc(-c2ccnc(C(C)(C)O)n2)c(F)c1-n1c(C)cc(OCc2ncc(F)cc2F)c(C)c1=O`: the IC50 came out at 5320 nM in data set [2] and 4 nM in data set [1]. This molecule also showed a half-life in [3] of 0.9 h. The bioavailability in data set [4] was found to be 56%. Moreover, the Vd in [5] is 0.9 L/kg. Also, the peak concentration (Cmax) in data set [6] is 496 ng/mL. Moreover, the AUC(0-t) at 24 h in data set [7] was found to be 1310 ng·h/mL; in data set [9], 1170 ng·h/mL. Moreover, the Ratio IC50 in data set [8] turned out to be 1330. Moreover, the clearance in data set [10] was found to be 13.9 mL/min/kg. The mean residence time MRT in data set [11] worked out at 1.1 h.
On to `Cc1cnc(-c2cccc(C(C)(C)O)c2Cl)c(F)c1-n1c(C)cc(OCc2ncc(F)cc2F)c(Cl)c1=O`, for which the IC50 in [1] was found to be 6 nM.
For `Cc1cnc(-c2ccnc(C(C)(C)O)n2)cc1-c1c(C)cc(OCc2ncc(F)cc2F)c(Cl)[n+]1[O-]`, in [1], the IC50 turned out to be 83.9 nM.
Same read-out and setting: the same measure for `Cc1cnc(-c2ccnc(C(C)(C)O)n2)cc1-c1c(F)cc(OCc2ncc(F)cc2F)c(Cl)c1C`: over 10000 nM.
As for `Cc1cnc(-c2ccnc(C(C)(C)O)n2)cc1-c1c(C)c(Cl)c(OCc2ncc(F)cc2F)c[n+]1[O-]`, in data set [1], the IC50 is over 10000 nM.
In the case of `Cc1cnc(-c2ccnc(C(C)(C)O)n2)c(F)c1-n1c(C)cc(O[C@@H](C)c2ncc(F)cc2F)c(C(F)F)c1=O`, the IC50 in data set [1] is 112 nM.
Regarding `Cc1cnc(-c2cccc(C(C)(C)O)c2F)cc1-n1c(C)cc(O[C@@H](C)c2ncc(F)cc2F)c(C)c1=O`, in [1], the IC50 stood at 15.5 nM.
The same measure, in the same setting: in the case of `Cc1cnc(-c2cc(C(C)(C)O)ccc2Cl)c(F)c1-n1c(C)cc(OCc2ncc(F)cc2F)c(Cl)c1=O` it was 19 nM.
Turning to `C=Cc1c(O[C@@H](C)c2ncc(F)cc2F)cc(C)n(-c2c(C)cnc(-c3ccnc(C(C)(C)O)n3)c2F)c1=O`, in data set [1], the IC50 came out at 34 nM.
As for `Cc1cnc(-c2ccnc(C(C)(C)O)n2)cc1-n1c(C)cc(SCc2ncc(F)cc2F)c(Cl)c1=O`, the IC50 in [1] came out at 22.6 nM.
Consider `Cc1cnc(-c2cccc(C(C)(C)O)c2F)cc1-n1c(C)cc(O[C@@H](C)c2ncc(F)cc2F)c(Cl)c1=O`, for which the concentration for half-maximal inhibition (IC50) in data set [2] is 504 nM; in [1], 1.6 nM. Further, the Ratio IC50 in data set [8] was 315.
As to `Cc1cnc(-c2cccc(C(C)(C)O)c2F)c(F)c1-n1c(C)cc(O[C@@H](C)c2ncc(F)cc2F)c(C)c1=O`, the 50% inhibitory concentration (IC50) worked out at 394 nM in data set [2] and 1.6 nM in [1]. Moreover, the Ratio IC50 in [8] amounted to 246.
For `CCc1c(O[C@@H](C)c2ncc(F)cc2F)cc(C)n(-c2c(C)cnc(-c3ccnc(C(C)(C)O)n3)c2F)c1=O`, in data set [1], the IC50 came to 4 nM.
Same read-out and setting: in the case of `Cc1cnc(-c2ccnc(C(C)(C)O)n2)cc1-c1c(C)cc(OCc2ncc(F)cc2F)c(Cl)c1F` it was over 10000 nM.
Regarding `Cc1cc(OCc2ncc(F)cc2F)c(Cl)c(=O)n1C1=CCCN(c2ccnc(C(C)(C)O)n2)C1`, in data set [1], the IC50 was over 10000 nM.
Take `Cc1ccc(-c2ccnc(C(C)(C)O)n2)cc1-n1c(C)cc(OCc2ncc(F)cc2F)c(Cl)c1=O`: the half-maximal inhibitory concentration (IC50) in data set [2] amounted to 2900 nM; in data set [1], 3.6 nM. Further, the Ratio IC50 in [8] worked out at 805.
For the molecule `Cc1cnc(-c2cc(C(C)(C)O)ccc2F)c(F)c1-n1c(C)cc(OCc2ncc(F)cc2F)c(Cl)c1=O`, the half-maximal inhibitory concentration (IC50) in [2] amounted to 2.9 nM; in data set [1], 17.2 nM. The Ratio IC50 in data set [8] turned out to be 0.2.
With `Cc1cnc(-c2ccnc(C(C)(C)O)n2)c(F)c1-n1c(C)cc(O[C@@H](C)c2ncc(F)cc2F)c(C=O)c1=O`, the IC50 in data set [1] is 143 nM.
With `Cc1cnc(-c2ccnc(C(C)(C)O)n2)cc1-c1c(C)cc(OCc2ncc(F)cc2F)c[n+]1[O-]`, the IC50 in [1] was over 10000 nM.
On the same count and under the same terms, the same measure for `Cc1ccc(C(C)(C)O)cc1-c1ncc(C)c(-n2c(C)cc(OCc3ncc(F)cc3F)c(Cl)c2=O)c1F`: 62 nM; for `Cc1cnc(-c2ccnc(C(C)(C)O)n2)cc1-n1ncc(OCc2ncc(F)cc2F)c(Cl)c1=O`: 1150 nM; for `C=C(C)c1c(O[C@@H](C)c2ncc(F)cc2F)cc(C)n(-c2c(C)cnc(-c3ccnc(C(C)(C)O)n3)c2F)c1=O`: over 1000 nM.
As to `Cc1cnc(-c2cccc(C(C)(C)O)c2)cc1-n1c(C)cc(OCc2ncc(F)cc2F)c(Cl)c1=O`, the IC50 is 1950 nM in data set [2] and 5.3 nM in [1]. The Ratio IC50 in [8] amounted to 368.
In the case of `Cc1cnc(-c2cccc(C(C)(C)O)n2)cc1-n1c(C)cc(OCc2ncc(F)cc2F)c(Cl)c1=O`, the figures for the IC50 in data set [2] and in data set [1] were 999 nM and 3 nM, respectively. Moreover, the Ratio IC50 in [8] is 333.
Consider `Cc1cnc(-c2cccc(C(C)(C)O)c2)c(F)c1-n1c(C)cc(OCc2ncc(F)cc2F)c(Cl)c1=O`, for which the values for the IC50 in [2] and in data set [1] were 506 nM and 0.5 nM, respectively. In data set [3], this molecule had a half-life of 1.5 h. Besides, in [4], the bioavailability is 55%. In [5], the Vd was found to be 0.7 L/kg. In data set [6], the Cmax worked out at 738 ng/mL. Also, the AUC(0-t) at 24 h in data set [7] came to 1980 ng·h/mL; in data set [9], 1800 ng·h/mL. In addition, in [8], the Ratio IC50 was 1010. In data set [10], this molecule came in with a clearance of 10 mL/min/kg. Also, in data set [11], the mean residence time (MRT) turned out to be 1.2 h.
In the case of `Cc1cnc(-c2cccc(C(C)(C)O)c2F)c(F)c1-n1c(C)cc(O[C@@H](C)c2ncc(F)cc2F)c(Cl)c1=O`, the IC50 amounted to 23 nM in data set [2] and 0.7 nM in data set [1]. Also, the Ratio IC50 in data set [8] is 33.
Take `Cc1cnc(-c2ccnc(C(C)(C)O)n2)cc1-n1c(C)cc(COc2ncc(F)cc2F)c(Cl)c1=O`: the IC50 in data set [1] amounted to 1540 nM.
For `Cc1cnc(-c2ccnc(C(C)(C)O)n2)c(F)c1-n1c(C)cc(O[C@@H](C)c2ncc(F)cc2F)c(C2CC2)c1=O`, in [1], the IC50 was determined as 32 nM.
Same read-out and setting: in the case of `Cc1cnc(-c2cccc(C(C)(C)O)c2C)c(F)c1-n1c(C)cc(OCc2ncc(F)cc2F)c(Cl)c1=O` it was 68 nM; in that of `Cc1cnc(-c2ccnc(C(C)(C)O)n2)c(F)c1-n1c(C)cc(O[C@@H](C)c2ncc(F)cc2F)c(C(C)C)c1=O`, 92 nM.
For `Cc1nn(-c2ccnc(C(C)(C)O)n2)cc1-n1c(C)cc(OCc2ncc(F)cc2F)c(Cl)c1=O`, the IC50 in [1] came to 1300 nM.
On the same count and under the same terms, in the case of `Cc1cnc(-c2cc(C(C)(C)O)ccc2F)c(F)c1-n1c(C)cc(O[C@@H](C)c2ncc(F)cc2F)c(Cl)c1=O` it was 61 nM.
On to `Cc1cnc(-c2cccc(C(C)(C)O)c2F)c(C)c1-n1c(C)cc(O[C@@H](C)c2ncc(F)cc2F)c(Cl)c1=O`, for which the IC50 came out at 1400 nM in data set [2] and 12.8 nM in [1]. The Ratio IC50 in [8] amounted to 109.
As for `Cc1cnc(-c2ccnc(C(C)(C)O)n2)cc1-n1c(C)cc(OC2CN(c3ncc(F)cc3F)C2)c(Cl)c1=O`, the IC50 in [1] amounted to 284 nM.
Take `Cc1cnc(-c2ccnc(C(C)(C)O)n2)cc1N1CCC(OCc2ncc(F)cc2F)CC1=O` (configuration not stated): the IC50 in [1] was over 10000 nM.

Source of the values: ChEMBL document CHEMBL6096702, “Discovery of a Novel p38α-MK2 Complex Inhibitor as a Potential Choice for Autoimmune Diseases” (J Med Chem, 2025).
